The results in this text go back to patent US9428507B2, “Compounds for the treatment of malaria” (The Broad Institute, Inc., priority 2013, dated 2016).

SMILES strings stand for the structures.

By IC50 is commonly meant the concentration that gives 50% inhibition.

For assay [1], the system named is P. berghei (ANKA GFP-luc) blood stage parasites. In words: In vivo P. berghei blood-stage assay. Also on record: species or system CD-1 mice. The following applies: 50 mg/kg 4x, p.o., T/E. How it is done:
CD-1 mice (n=4 per experimental group; female; 6-7-week-old; 20-24 g) were inoculated with 1×10^6 P. berghei (ANKA GFP-luc) blood stage parasites intravenously 24 hours before treatment and compounds were administered orally (at 0 hour). Parasitemia was monitored by the In vivo Imaging System (IVIS 100, Xenogen; Caliper Life Sciences) to acquire the bioluminescence signal. In addition, blood smear samples were obtained from each mouse on day 4 after inoculation, stained with Giemsa, and viewed under a microscope for visual detection of blood parasitemia. Animals with parasitemia exceeding 20% were euthanized.

For another assay, the system named is P. falciparum K1. The assay can be described thus: In vitro P. falciparum blood-stage assay, strain K1. In kind it is cell-based. The following applies: Plasmodium falciparum. How it is done: (§1) Strains of Plasmodium falciparum (Dd2, 3D7, D6, K1, NF54, V1/3, HB3, 7G8, FCB, TM90C2B) were obtained from Malaria Research and Reference Reagent Resource Center (MR4). P. falciparum isolates were maintained with O-positive human blood in an atmosphere of 93% N2, 4% CO2, 3% O2 at 37° C. in complete culturing medium (10.4 g/L RPMI 1640, 5.94 g/L HEPES, 5 g/L albumax II, 50 mg/L hypoxanthine, 2.1 g/L sodium bicarbonate, 10% human serum and 43 mg/L gentamicin). Parasites were cultured in medium until the parasitemia reached 3-8%. Parasitemia was determined by checking at least 500 red blood cells from a Giemsa-stained blood smear. For the compound screening, a parasite suspension at 2.0% parasitemia and 2.0% hematocrit was created with medium. 25 μl of medium was dispensed into 384-well, black, clear-bottom plates. 100 nl of compounds in DMSO was transferred into the assay plates along with control compound (mefloquine). Next, 25 μl of the parasite suspension in medium was dispensed into the assay plates such that the final parasitemia was 1% and the final hematocrit was 1%. The assay plates were incubated for 72 hours at 37° C. […] The assay plates were read with 505 dichroic mirrors with 485-nm excitation and 530-nm emission settings.

In the next assay the test system is P. falciparum HB3. The assay can be described thus: In vitro P. falciparum blood-stage assay, strain HB3. The note with it: Plasmodium falciparum. The assay is classed as cell-based. How it is done: as §1
In assay [2] the test system is P. berghei (ANKA GFP-luc). In words: In vitro P. berghei liver-stage assay in HepG2 cells. In kind it is cell-based. The note with it: Plasmodium berghei, 48 hour incubation, read-out: IC50 exo-erythrocytic stage P. berghei. How it is done:
In vitro P. berghei liver-stage assay HepG2 cells were maintained in DMEM, 10% (vol/vol) FBS (Sigma), and 1% (vol/vol) antibiotic-antimycotic in a standard tissue culture incubator (37° C., 5% CO2). P. berghei (ANKA GFP-luc) infected Anopheles stephensi mosquitoes were obtained from the New York University Langone Medical Center Insectary (New York). For assays, ˜17,500 HepG2 cells per well were added to a 384-well microtiter plate in duplicate. After 18-24 h at 37° C. the media was exchanged and compounds were added. After 1 hour, parasites obtained from freshly dissected mosquitoes were added to the plates (4,000 parasites per well), the plates were spun for 10 min at 1,000 rpm, and then the plates were incubated at 37° C. The final assay volume was 30 μL. After a 48 hour incubation at 37° C., Bright-Glo (Promega) was added to the parasite plate to measure relative luminescence. The relative signal intensity of each plate was evaluated with an EnVision (PerkinElmer) system.

A further assay deals with P. falciparum V1/3. In words: In vitro P. falciparum blood-stage assay, strain V1/3. In kind it is cell-based. The following applies: Plasmodium falciparum. How it is done:
as §1

For assay [3], the system named is P. falciparum asexual erythocytic stage. In words: Erythrocytic stage, asexual (P. falciparum). In kind it is cell-based. The following applies: Plasmodium falciparum. How it is done: as §1
A further assay has as its system P. falciparum D6. In words: In vitro P. falciparum blood-stage assay, strain D6. The assay is classed as cell-based. The following applies: Plasmodium falciparum. How it is done:
as §1

For a further assay, the system named is P. falciparum 3D7. In words: In vitro P. falciparum blood-stage assay, strain 3D7. The following applies: Plasmodium falciparum. The assay is classed as cell-based. How it is done: as §1
The test system of a further assay is P. falciparum TM90C2B. The assay can be described thus: In vitro P. falciparum blood-stage assay, strain TM90C2B. The assay is classed as cell-based. The note with it: Plasmodium falciparum. How it is done: as §1

For the compound `COc1ccc2c3c([nH]c2c1)[C@H](CO)N(C(C)=O)CC31CCN(C(=O)Nc2ccccc2F)CC1` [Compound 15, (R)-2′-acetyl-N-(2-fluorophenyl)-1′-(hydroxymethyl)-7′-methoxy-1′,2′,3′,9′-tetrahydrospiro [piperidine-4,4′-pyrido[3,4-b]indole]-1-carboxamide], the “% Activity” value in [1] amounted to 94.20%. Besides, the “% of control” value in assay [1] stood at 5.80%. In addition, in assay [1], the “Avg. Mouse survival” value was found to be 6.3 days. Moreover, the “Mouse survival in days, M1” value in [1] (mouse M1) is on record as 6 days. For the same compound, in assay [1] (mouse M1), the “Parasitized RBC over 100, M1” value stood at 3.70. Further, in assay [1] (mouse M2), the “Mouse survival in days, M2” value is 6 days. In assay [1] (mouse M2), the “Parasitized RBC over 100, M2” value was 3.20. The “Mouse survival in days, M3” value in assay [1] (mouse M3) is on record as 7 days. Also, the “Parasitized RBC over 100, M3” value in assay [1] (mouse M3) came out at 2.80. The IC50 is 91 nM with P. falciparum K1; 147 nM in the assay with P. falciparum HB3; 459 nM in [2]; 98 nM with P. falciparum V1/3; 64 nM in assay [3]; 70 nM with P. falciparum D6. In addition, the figures for the IC50 in the assay on P. falciparum 3D7 and in the assay on P. falciparum TM90C2B were 65 nM and 104 nM, respectively.
